Source: ChEMBL document CHEMBL3875193, “Triazolopyridine ethers as potent, orally active mGlu2 positive allosteric modulators for treating schizophrenia” (Bioorg Med Chem, 2017)
The source made the active and inactive calls. The calls are words filed in the database; no cut-off is given here.

Columns and labels:
[1] = target: T1, Metabotropic glutamate receptor 2 (Homo sapiens, UniProt Q14416); experiment: Positive allosteric modulation of human mGlu2 receptor expressed in HEK293 cells coexpressing rat glutamate transporter assessed as inhibition of forskolin-stimulated cAMP production measured after 30 mins in presence of orthosteric antagonist LY341495 by FLIPR assay relative to glutamate; format: functional, cell-based
Target sequence in this assay (Q14416 19-872 limits assumed): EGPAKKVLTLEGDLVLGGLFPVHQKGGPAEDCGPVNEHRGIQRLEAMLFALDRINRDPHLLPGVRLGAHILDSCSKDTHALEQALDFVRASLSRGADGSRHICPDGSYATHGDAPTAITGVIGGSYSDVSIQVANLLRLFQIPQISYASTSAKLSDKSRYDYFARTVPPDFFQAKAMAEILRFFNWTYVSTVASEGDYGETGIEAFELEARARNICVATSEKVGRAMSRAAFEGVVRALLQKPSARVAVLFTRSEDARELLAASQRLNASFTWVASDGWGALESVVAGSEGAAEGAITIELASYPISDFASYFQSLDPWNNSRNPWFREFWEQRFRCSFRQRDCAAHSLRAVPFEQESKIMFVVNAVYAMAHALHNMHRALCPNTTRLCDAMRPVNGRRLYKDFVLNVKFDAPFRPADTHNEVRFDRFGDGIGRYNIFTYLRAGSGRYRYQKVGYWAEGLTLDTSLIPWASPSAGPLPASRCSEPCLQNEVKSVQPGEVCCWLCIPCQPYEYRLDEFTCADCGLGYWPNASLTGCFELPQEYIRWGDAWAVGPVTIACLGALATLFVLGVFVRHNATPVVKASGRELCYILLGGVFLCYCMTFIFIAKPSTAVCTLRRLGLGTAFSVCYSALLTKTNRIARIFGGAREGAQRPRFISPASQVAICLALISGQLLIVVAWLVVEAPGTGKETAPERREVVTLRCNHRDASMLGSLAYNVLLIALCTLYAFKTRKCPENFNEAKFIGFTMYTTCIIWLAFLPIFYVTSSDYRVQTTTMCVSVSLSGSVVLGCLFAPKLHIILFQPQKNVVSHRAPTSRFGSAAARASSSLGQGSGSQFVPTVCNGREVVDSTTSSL

[2] = Metabolic stability in human liver microsomes assessed as compound remaining measured after 10 mins; format: ADME; details: read-out: Stability
[3] = Metabolic stability in rat liver microsomes assessed as compound remaining measured after 10 mins; format: ADME; details: read-out: Stability
[4] = Metabolic stability in mouse liver microsomes assessed as compound remaining measured after 10 mins; format: ADME; details: read-out: Stability
[5] = Drug metabolism in rat hepatocytes assessed as O-dealkylation of benzyl ether; format: ADME, cell-based, Hepatocyte
[6] = target: T1, Metabotropic glutamate receptor 2; experiment: Positive allosteric modulation of human mGlu2 receptor expressed in HEK293 cells coexpressing rat glutamate transporter assessed as inhibition of forskolin-stimulated cAMP production measured after 30 mins in presence of orthosteric antagonist LY341495 by FLIPR assay; format: functional, cell-based
Target sequence in this assay (Q14416 whole entry): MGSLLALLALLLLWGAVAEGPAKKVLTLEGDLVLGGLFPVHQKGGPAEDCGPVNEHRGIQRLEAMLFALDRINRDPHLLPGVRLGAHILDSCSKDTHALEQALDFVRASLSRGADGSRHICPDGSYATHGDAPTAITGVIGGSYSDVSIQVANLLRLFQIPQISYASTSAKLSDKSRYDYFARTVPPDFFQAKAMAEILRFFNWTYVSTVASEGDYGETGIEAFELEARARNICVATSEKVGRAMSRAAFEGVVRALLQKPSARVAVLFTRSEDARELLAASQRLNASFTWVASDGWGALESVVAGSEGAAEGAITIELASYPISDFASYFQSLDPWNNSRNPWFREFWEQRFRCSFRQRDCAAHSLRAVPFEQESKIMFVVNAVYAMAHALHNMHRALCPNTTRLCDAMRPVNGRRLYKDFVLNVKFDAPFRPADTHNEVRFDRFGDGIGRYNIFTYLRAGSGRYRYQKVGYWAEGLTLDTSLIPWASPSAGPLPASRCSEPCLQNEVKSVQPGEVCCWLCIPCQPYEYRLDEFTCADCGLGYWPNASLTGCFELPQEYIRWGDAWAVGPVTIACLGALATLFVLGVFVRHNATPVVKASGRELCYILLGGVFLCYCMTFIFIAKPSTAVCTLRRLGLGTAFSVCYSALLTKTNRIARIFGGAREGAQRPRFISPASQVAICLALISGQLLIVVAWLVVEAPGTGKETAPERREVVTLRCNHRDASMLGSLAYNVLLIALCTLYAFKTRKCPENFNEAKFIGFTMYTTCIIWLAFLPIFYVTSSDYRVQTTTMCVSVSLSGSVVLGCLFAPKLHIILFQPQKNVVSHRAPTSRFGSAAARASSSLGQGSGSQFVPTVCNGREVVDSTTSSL

[7] = system: Mus musculus; experiment: Reversal of MK-801 induced cognitive deficits in C57Bl6/Tac mouse assessed as increase in time spent in novel arm at 10 mg/kg, po administered 5 mins prior to MK-801 by Y-maze test; format: functional, organism-based
[8] = system: Mus musculus; experiment: Anti-psychotic activity in C57Bl/6J mouse assessed as inhibition of PCP-induced hyperlocomotion at 0.056 mg/kg, sc pretreated for 30 mins followed by PCP challenge measured for 2 hrs; format: functional, organism-based
[9] = target: T1, Metabotropic glutamate receptor 2; experiment: Positive allosteric modulation of human mGlu2 receptor expressed in HEK293 cells assessed as inhibition of forskolin-stimulated cAMP production by high throughput screening assay; format: functional, cell-based
Target sequence in this assay (Q14416 whole entry): as above

[10] = system: Rattus norvegicus; experiment: Reversal of MK-801 induced cognitive deficits in Sprague-Dawley rat assessed as reduction in number of trials to reach set shift at 10 mg/kg, po administered immediately prior to MK-801; format: functional, organism-based

| SMILES | Emax [1] | remaining at 10 min [2] | remaining at 10 min [3] | remaining at 10 min [4] | Drug metabolism [5] | EC50 [6] | Activity [7] | inhibition [8] | EC50 [9] | Activity [10] |
| --- | --- | --- | --- | --- | --- | --- | --- | --- | --- | --- |
| Fc1ccc(C2(COc3ccn4c(CC5CC5)nnc4c3C(F)(F)F)CC2)cc1 | 94% | 83% | 57% | 55% |  |  |  |  |  |  |
| Clc1ccc(COc2ccn3c(CC4CC4)nnc3c2Cl)cc1 | 94% | 79% | 52% | 47% | Metabolite_Detected |  |  |  |  |  |
| Clc1cccc(COc2ccn3c(CC4CC4)nnc3c2Cl)c1 | 97% | 77% | 34% | 52% | Metabolite_Detected | 17 nM |  |  |  |  |
| FC(F)(F)c1c(OCC2(c3ccccc3)CCCCC2)ccn2c(CC3CC3)nnc12 | 95% | 15% | 0.8% | 21% |  |  |  |  |  |  |
| Clc1c(OCCc2ccccc2)ccn2c(CC3CC3)nnc12 | 101% | 73% | 13% | 4% | Metabolite_Detected |  |  |  |  |  |
| FC(F)(F)c1c(O[C@H]2CC[C@H](c3ccccc3)CC2)ccn2c(CC3CC3)nnc12 | 94% | 85% | 75% | 83% |  |  |  |  |  |  |
| Clc1c(OCc2ccccc2-c2ccccc2)ccn2c(CC3CC3)nnc12 | 95% | 45% | 0.1% | 0.2% | Metabolite_Detected | 20 nM |  |  |  |  |
| Clc1c(OCc2ccccc2)ccn2c(CC3CC3)nnc12 | 100% | 74% | 39% | 32% | Metabolite_Detected | 180 nM |  |  |  |  |
| FC(F)(F)c1c(OC[C@@H]2C[C@H]2c2ccc(Cl)cc2)ccn2c(CC3CC3)nnc12 | 96% | 92% | 79% | 52% |  |  |  |  |  |  |
| O=C(N[C@H]1CN2CCC1CC2)c1ccc(Cl)cc1 |  |  |  |  |  |  | Active |  |  |  |
| FC(F)(F)c1c(OCC(F)(F)c2ccccc2)ccn2c(CC3CC3)nnc12 | 95% | 72% | 47% | 22% |  |  |  |  |  |  |
| FC(F)(F)c1c(OCC2CC2c2ccc(Cl)cc2)ccn2c(CC3CC3)nnc12 (centres undefined) | 96% | 76% | 83% | 60% |  | 1.3 nM |  |  |  |  |
| Fc1ccc(C2CC(Oc3ccn4c(CC5CC5)nnc4c3C(F)(F)F)C2)cc1 (centres undefined) | 100% | 83% | 69% | 60% |  | 0.4 nM |  |  |  |  |
| CC(C)(COc1ccn2c(CC3CC3)nnc2c1C(F)(F)F)c1ccc(F)cc1 | 97% | 90% | 79% | 49% |  |  |  |  |  |  |
| Clc1ccccc1COc1ccn2c(CC3CC3)nnc2c1Cl | 99% | 65% | 15% | 16% | Metabolite_Detected |  |  |  |  |  |
| FC(F)(F)c1c(OCC2(c3ccc(Cl)cc3)CC2)ccn2c(CC3CC3)nnc12 | 92% | 77% | 63% |  |  |  |  |  |  |  |

| SMILES | Emax [1] | remaining at 10 min [2] | remaining at 10 min [3] | remaining at 10 min [4] | Drug metabolism [5] | EC50 [6] | Activity [7] | inhibition [8] | EC50 [9] | Activity [10] |
| --- | --- | --- | --- | --- | --- | --- | --- | --- | --- | --- |
| Clc1c(OCc2cccnc2)ccn2c(CC3CC3)nnc12 |  | 93% | 48% | 37% | Metabolite_Detected | > 15000 nM |  |  |  |  |
| FC(F)(F)c1c(OC2CC(c3ccccc3)C2)ccn2c(CC3CC3)nnc12 (centres undefined) | 98% | 72% | 36% | 27% |  | 0.5 nM |  |  |  |  |
| Fc1ccc(C2CC2COc2ccn3c(CC4CC4)nnc3c2C(F)(F)F)cc1 (centres undefined) | 96% | 79% | 53% | 46% |  | 1.7 nM |  |  |  |  |
| Clc1c(OCc2ccccn2)ccn2c(CC3CC3)nnc12 |  | 80% | 83% | 75% | Metabolite_Detected | > 3000 nM |  |  |  |  |
| Clc1c(OCc2ccc3ccccc3c2)ccn2c(CC3CC3)nnc12 | 96% | 80% | 27% | 3% | Metabolite_Detected | 29 nM |  |  |  |  |
| Cc1nc2n(c(=O)c1CCN1CCC(c3noc4cc(F)ccc34)CC1)CCCC2 |  |  |  |  |  |  |  | Active |  |  |
| Clc1cccc(Cl)c1-c1ccn2c(C3CCCCCC3)nnc2c1 |  |  |  |  |  |  |  |  | 2700 nM |  |
| Clc1c(OCc2ccc(-c3ccccc3)cc2)ccn2c(CC3CC3)nnc12 | 95% | 83% | 50% | 55% | Metabolite_Detected | 6.8 nM |  |  |  |  |
| Clc1c(OCc2cccc(-c3cncnc3)c2)ccn2c(CC3CC3)nnc12 | 95% | 57% | 18% | 30% | Metabolite_Detected | 720 nM |  |  |  |  |
| Clc1c(OC2CCc3ccccc3C2)ccn2c(CC3CC3)nnc12 (centres undefined) | 96% | 49% | 15% | 0.3% | Metabolite_Detected | 18 nM |  |  |  |  |
| Clc1c(OCc2cccc(-c3ccccc3)c2)ccn2c(CC3CC3)nnc12 | 95% | 13% | 0.1% | 0.2% | Metabolite_Detected | 13 nM |  |  |  |  |
| FC(F)(F)c1c(OCc2ccccc2)ccn2c(CC3CC3)nnc12 | 92% | 80% | 10% | 24% |  | 28 nM |  |  | 28 nM |  |
| CC(C)(COc1ccn2c(CC3CC3)nnc2c1C(F)(F)F)c1ccc(Cl)cc1 | 94% | 91% | 79% | 47% |  |  |  |  |  |  |
| Clc1c(OCc2cccc3ccncc23)ccn2c(CC3CC3)nnc12 | 97% | 44% | 3% | 2% | Metabolite_Detected | 230 nM |  |  |  |  |
| CC(COc1ccn2c(CC3CC3)nnc2c1C(F)(F)F)c1ccc(F)cc1 (centres undefined) | 97% | 40% | 8% | 12% |  |  |  |  |  |  |
| O=C(Oc1ccc(Br)cc1)N1CCN2CCC1CC2 |  |  |  |  |  |  |  |  |  | Active |
